Measurements taken from patent US7196061B2, “Compounds that modulate neuronal growth and their uses” (priority 2003, dated 2007).
pEC50, pIC50: −log10 of the molar value. Values joined by “and” are separate entries in the source; they are usually repeats but may differ in a detail not shown here. Identical values can stand only once. “Also recorded” adds a separate entry of the source. Positions of bridges follow the written chain, without caps; N, C: chain ends. Residues, ends and D or L forms follow the SMILES beside them.

How the values were obtained:
MAG inhibitory activity [1] = assay: Neurite outgrowth over N-cadherin expressing 3T3 (LK8) cells with soluble MAG-Fc; type: cell-based, rat; settings: for effect on MAG-Fc inhibition of neurite outgrowth: MAG-Fc up to 25 μg/ml, Y27632 10 μM, BAG 6 μM, BDNF 5 ng/ml
Method: Reagents and culture treatment. […] In particular, recombinant human FGF2 and BDNF were obtained from R&D systems (Minneapolis, Minn.) and used at final concentrations of 5 ng/ml. The Trk receptor agonist K252a was obtained from Calbiochem (San Diego, Calif.) and used at a final concentration of 100 nM. The Trk agonist peptide BAG (SEQ ID NO:18) was obtained from a commercial supplier (Multiple Peptide Systems, San Diego Calif.). […] Monoclonal antibody to GT1b (clone GMR5) was obtained from Seikagaku America (Falmouth, Mass.) and used at a final concentration of 20 μg/ml. A p75 NTR rabbit polyclonal antibody was raised against the extracellular domain of that receptor as previously described (see, Huber & Chao, Dev. Biol. 1995, 167:227–238) and used at a 1:200 dilution of serum. The known PKA inhibitors KT5720 and H-89 were obtained from Calbiochem (San Diego, Calif.) and used at final concentrations of 200 and 400 nM, respectively. The known PI3K inhibitors Wortmnannin and LY294002 were also obtained from Calbiochem (San Diego, Calif.) and were both used at final concentrations of 10 μM. The Rho kinase inhibitor Y27632 was obtained from Tocris (Bristol, UK) and used at 10 μM final concentration.
All reagents were diluted into the co-culture media and in general added to the cultures just prior to plating of the neurons. The exception was antiserum raised against the p75^NTR receptor. Instead, a high density neuronal suspension was treated with a 1:200 dilution of the serum for 60 minutes. The neurons were then diluted by a factor of about 20, and seeded out for culture.

GT1b = assay: Neurite outgrowth over N-cadherin expressing 3T3 cells with monoclonal antibody for GT1b; type: cell-based, rat; settings: antibody 20 μg/ml; Y27632 10 μM, BAG 6 μM
Method: Cultures were maintained for 22 hours before fixing and staining for GAP-43. […] Each column in the figure indicates pooled results from between 7 and 10 independent experiments, and the bars on each column indicate the SEM.
Reagents and culture treatment. […] In particular, recombinant human FGF2 and BDNF were obtained from R&D systems (Minneapolis, Minn.) and used at final concentrations of 5 ng/ml. The Trk receptor agonist K252a was obtained from Calbiochem (San Diego, Calif.) and used at a final concentration of 100 nM. The Trk agonist peptide BAG (SEQ ID NO:18) was obtained from a commercial supplier (Multiple Peptide Systems, San Diego Calif.). […] A p75 NTR rabbit polyclonal antibody was raised against the extracellular domain of that receptor as previously described (see, Huber & Chao, Dev. Biol. 1995, 167:227–238) and used at a 1:200 dilution of serum. The known PKA inhibitors KT5720 and H-89 were obtained from Calbiochem (San Diego, Calif.) and used at final concentrations of 200 and 400 nM, respectively.

p75^NTR receptor = assay: Neurite outgrowth over N-cadherin expressing 3T3 cells after treatment with antibody to p75NTR; type: cell-based, rat; settings: Y27632 10 μM, BAG 6 μM, BDNF 5 ng/ml added after antibody treatment
Method: These antibody treated neurons were cultured after treatment in either: (1) control media without supplements; (2) the Rho kinase inhibitor Y27632 (10 μM final concentration); (3) BAG polypeptide (6 μM final concentration); or (4) BDNF neurotrophin (5 ng/ml final concentration). […] Each column in the figure indicates pooled results from the number of independent experiments indicated above it, and the bars on each column indicate the SEM.
Reagents and culture treatment. Unless otherwise noted here, reagents in the experiments set forth in this Section were obtained and as set forth supra, in Section 7.1.3 et seq. In particular, recombinant human FGF2 and BDNF were obtained from R&D systems (Minneapolis, Minn.) and used at final concentrations of 5 ng/ml. The Trk receptor […] K252a was obtained from Calbiochem (San Diego, Calif.) and used at a final concentration of 100 nM. The Trk agonist peptide BAG (SEQ ID NO:18) was obtained from a commercial supplier (Multiple Peptide Systems, San Diego Calif.). Recombinant MAG-Fc chimera was obtained from R&D Systems (Minneapolis, Minn.) and used at a final concentration of 5–25 μg/ml. Monoclonal antibody to GT1b (clone GMR5) was obtained from Seikagaku America (Falmouth, Mass.) and used at a final concentration of 20 μg/ml. […]

MAG inhibitory activity [2] = assay: Substrate based neurite outgrowth assay in inhibitory environment (MAG-Fc coated wells); type: cell-based, rat; settings: for neurite growth in the inhibitory environment (overall / dose response) / neurite growth in the inhibitory environment at 33 μg/ml: 27 hours; for neurite growth in the inhibitory environment at 33 μg/ml: peptide 33 μg/ml
Method: First, slides are coated with polylysine at 17 μg/ml in distilled water (“dH2O) for thirty (30) minutes at room temperature. After aspirating the wells, a mixture of anti-human IgG and/or fibronectin (both at 10 μg/ml in DMEM) is added to wells to be coated with those compounds, and incubated for 120 minutes. […] PND2/3 rat cerebellar neurons are then added at 15K to each well in DMEM, 10% FCS, 25 mM KCl and 5 ng/ml FGF2, bringing the final media volume to 300 μl in each well. The cerebellar neurons are cultured for 27 hours before fixing and staining for GAP-43.

cerebellar neurons [3] = assay: Neurite outgrowth assay, cerebellar neurons over 3T3 monolayers (stimulation / basal outgrowth); type: cell-based, rat; settings: for effect on basal neurite outgrowth: absence of any natural NT ligand, N-Ac-CRGEC-NH2 at concentrations greater than about 400 μM
Method: (§1) After 16 hours, the co-cultures were fixed and mean neurite length determined as has been previously described (Williams et al., J. Biol. Chem. 2000, 275:4007–4012).

cerebellar neurons [4] = type: cell-based, rat; settings: K252a 100 nM, KT5720 200 nM, H-89 400 nM, Wortmannin and LY294002 10 μM; for effect on the neurite outgrowth response to BAG: BAG 6 μM; for effect on the neurite outgrowth response to BDNF: BDNF 5 ng/ml; for effect on the neurite outgrowth response to FGF2: FGF2 5 ng/ml
Method: To test the effects of various agents, the experiments were done as indicated in the figure using control media containing no additional supplements, or using media additionally supplement with K252a (100 nM final concentration), a PKA inhibitor (KT5720 at 200 nM final concentration or H-89 at 400 nM final concentration), or a PI3K inhibitor (Wortmannin or Ly294002, each at a final concentration of 10 μM). […] Each column in the figure indicates pooled results from at least three independent experiments, and the bars on each column indicate the SEM.
Reagents and culture treatment. Unless otherwise noted here, reagents in the experiments set forth in this Section were obtained and as set forth supra, in Section 7.1.3 et seq. In particular, recombinant human FGF2 and BDNF were obtained from R&D systems (Minneapolis, Minn.) and used at final concentrations of 5 ng/ml. The Trk receptor […] K252a was obtained from Calbiochem (San Diego, Calif.) and used at a final concentration of 100 nM. The Trk agonist peptide BAG (SEQ ID NO:18) was obtained from a commercial supplier (Multiple Peptide Systems, San Diego Calif.). […] A p75 NTR rabbit polyclonal antibody was raised against the extracellular domain of that receptor as previously described (see, Huber & Chao, Dev. Biol. 1995, 167:227–238) and used at a 1:200 dilution of serum. The known PKA inhibitors KT5720 and H-89 were obtained from Calbiochem (San Diego, Calif.) and used at final concentrations of 200 and 400 nM, respectively.

Trk receptor = Trk receptor (Rattus norvegicus, UniProt Q63604); settings: maximally active BAG (6 μM); peptides 125 μM, K252a 100 nM
TrkB receptor [5] = target: T1, TrkB receptor (Rattus norvegicus, UniProt Q63604); assay: Neurite outgrowth assay, inhibition of the BDNF response; type: cell-based
T1 construct: endogenous in cells; host or cells: primary rat cerebellar neurons co-cultured on 3T3 fibroblast monolayers
Method: as §1
(§2) The effect of this peptide on the BDNF and NT-4 response was tested in the above-described neurite outgrowth assay, with both NT ligands used at concentrations of 5 ng/ml.

TrkB receptor [6] = target: T1, TrkB receptor; assay: Neurite outgrowth assay, inhibition of the NT-4 response; type: cell-based
Method: as §1, §2

cerebellar neurons [7] = settings: FGF2 5 ng/ml, WIN55,2122-2 0.2 μM; linear peptide up to 125 μM
Method: The peptides were also tested for their ability to inhibit the neurite outgrowth response stimulated by other agents, including N-cadherin, FGF2 or a CB1 receptor agonist.

MAG inhibitory activity [8] = assay: Neurite outgrowth over 3T3 cells that do not express N-cadherin with soluble MAG-Fc; type: cell-based, rat; settings: 3T3 without N-cadherin, BAG 6 μM

T1 sequence (Q63604 32-821): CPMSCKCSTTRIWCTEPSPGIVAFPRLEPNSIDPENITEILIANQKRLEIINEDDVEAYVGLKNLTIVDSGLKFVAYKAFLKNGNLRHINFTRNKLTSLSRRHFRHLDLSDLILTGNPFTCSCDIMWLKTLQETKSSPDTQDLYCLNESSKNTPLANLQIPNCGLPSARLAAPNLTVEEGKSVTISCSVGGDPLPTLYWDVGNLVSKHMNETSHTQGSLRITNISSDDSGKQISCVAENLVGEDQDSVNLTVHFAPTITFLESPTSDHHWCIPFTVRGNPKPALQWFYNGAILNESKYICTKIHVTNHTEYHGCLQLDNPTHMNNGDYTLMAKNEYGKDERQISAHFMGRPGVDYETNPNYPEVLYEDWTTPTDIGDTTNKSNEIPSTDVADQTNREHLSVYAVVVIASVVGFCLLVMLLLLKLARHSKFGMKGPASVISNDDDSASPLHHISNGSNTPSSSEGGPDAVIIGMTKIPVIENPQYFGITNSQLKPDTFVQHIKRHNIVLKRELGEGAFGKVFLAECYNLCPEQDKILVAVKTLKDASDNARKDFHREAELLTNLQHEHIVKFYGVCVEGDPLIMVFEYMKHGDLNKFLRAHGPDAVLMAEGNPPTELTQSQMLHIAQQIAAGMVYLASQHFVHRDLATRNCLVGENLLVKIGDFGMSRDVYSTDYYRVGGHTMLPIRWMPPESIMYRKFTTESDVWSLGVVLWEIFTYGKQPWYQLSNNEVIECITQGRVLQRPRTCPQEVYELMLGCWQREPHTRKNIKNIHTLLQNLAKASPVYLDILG
Sequence of Trk receptor (Q63604 32-821): as above

C[C@@H](N)[C@H]1CC[C@H](C(=O)Nc2ccncc2)CC1 [Y27632, reference compound] was tested, and the “effect on MAG-Fc inhibition of neurite outgrowth” value (“effect on MAG-Fc inhibition” below) (MAG inhibitory activity [1]) was “MAG-Fc does not inhibit neurite outgrowth”, the “effect on inhibition of neurite outgrowth by GT1b antibody” value (GT1b) was “effectively abolishes this effect” and the “effect on inhibitory response elicited by p75NTR antibody” value (p75^NTR receptor) was “does not elicit an inhibitory response”.
In the case of “Ac-dCdLdEGdRdRdSdAdAdLdEGdRdRdSdC-NHs [riBAG1]”, the “neurite growth in the inhibitory environment (overall / dose response)” value (MAG inhibitory activity [2]; MAG-Fc coating) was “block MAG inhibitory activity and promote neurite outgrowth” and the “neurite growth in the inhibitory environment at 33 μg/ml” value (MAG inhibitory activity [2]; MAG-Fc coating) was “does not promote growth”.
In the case of N-Ac-CRGEC-NH2, the “effect on basal neurite outgrowth” value (cerebellar neurons [3]) was “no effect on basal neurite outgrowth”.
In the case of c(dLdEGdRdRdSdLdEGdRdRdS) [hriBAG2], the “neurite growth in the inhibitory environment (overall / dose response)” value (MAG inhibitory activity [2]; MAG-Fc coating) was “block MAG inhibitory activity and promote neurite outgrowth; also recorded: promoted substantial dose-dependent neurite growth”, the “dose at which a neurite growth response can be observed” value (MAG inhibitory activity [2]; inhibitory environment (MAG-Fc coating)) was “about 10 μg/ml” and the “neurite growth in the inhibitory environment at 33 μg/ml” value (MAG inhibitory activity [2]; MAG-Fc coating) was “almost double the value seen in the inhibitory environment without the peptidomimetic; also recorded: promoted neurite growth to a substantially greater extent than BDNF, BAG peptide, and the hBAG2 and riBAG1 at any concentration”.
With O=S(=O)(NCCNC/C=C/c1ccc(Br)cc1)c1cccc2cnccc12 [H-89] the “effect on the neurite outgrowth response to BAG” value (“effect … to BAG” for short) (cerebellar neurons [4]) was “essentially abolished”, the “effect on the neurite outgrowth response to BDNF” value (“effect … to BDNF” below) (cerebellar neurons [4]) was “essentially abolished” and the “effect on the neurite outgrowth response to FGF2” value (“effect … to FGF2” below) (cerebellar neurons [4]) was “unaffected”.
In the case of cyclo(SRRGELSRRGEL) [hBAG2], the “neurite growth in the inhibitory environment (overall / dose response)” value (MAG inhibitory activity [2]; MAG-Fc coating) was “block MAG inhibitory activity and promote neurite outgrowth” and the “neurite growth in the inhibitory environment at 33 μg/ml” value (MAG inhibitory activity [2]; MAG-Fc coating) was “promotes neurite growth; also recorded: promoted neurite growth to an extent comparable to BAG polypeptide at a concentration of 10 μg/ml”.
With CCCCCCOC(=O)[C@]1(O)C[C@@H]2O[C@@]1(C)n1c3ccccc3c3c4c(c5c6ccccc6n2c5c31)C(=O)NC4 [KT5720] the “effect … to BAG” value (cerebellar neurons [4]) was “essentially abolished”, the “effect … to BDNF” value (cerebellar neurons [4]) was “essentially abolished” and the “effect … to FGF2” value (cerebellar neurons [4]) was “unaffected”.
COC(=O)[C@@]1(O)C[C@H]2O[C@]1(C)n1c3ccccc3c3c4c(c5c6ccccc6n2c5c31)C(=O)NC4 [K252a] was tested, and the “effect … to BAG” value (cerebellar neurons [4]) was “essentially abolished”, the “effect … to BDNF” value (cerebellar neurons [4]) was “essentially abolished” and the “effect … to FGF2” value (cerebellar neurons [4]) was “unaffected”. For the same molecule, the “inhibition of the neurite outgrowth response to the BAG peptide” value (“inhibition … to the BAG peptide” below) (Trk receptor) was “fully inhibited the response”.
For CC(=O)N[C@H]1CSSC[C@@H](C(N)=O)NC(=O)[C@H](CCC(=O)O)NC(=O)CNC(=O)[C@H](CCCNC(=N)N)NC(=O)[C@H](CCCNC(=N)N)NC(=O)[C@H](CO)NC1=O [N-Ac-CSRRGEC-NH2] (Ac-CSRRGEC-NH2; disulfide 1-7), the “TrkB antagonist potency compared with NT-3 and NGF equivalent peptides” value (TrkB receptor [5]) was “more potent TrkB antagonist”, the pIC50 (TrkB receptor [5]; 50% inhibition of the BDNF response, BDNF 5 ng/ml) was 4.57 and ~4.60 and the “fold better than the NGF and NT-3 derived peptides at inhibiting the BDNF response” value (TrkB receptor [5]; BDNF 5 ng/ml) was “approximately 5 fold”. The pIC50 (TrkB receptor [6]) was about 4.26, the “effect on basal neurite outgrowth” value (cerebellar neurons [3]) was “neither the N-Ac-CSRRGEC-NH2 (SEQ ID NO:2) peptide nor its NGF or NT-3 equivalents had any effect on basal neurite outgrowth” and the “inhibition … to the BAG peptide” value (Trk receptor) was “can fully inhibit the activity”.
With Ac-SRRGELA-NH2 the “inhibition of the BDNF response” value (TrkB receptor [5]; BDNF 5 ng/ml, linear peptide up to 125 μM) was “did not inhibit any of the response”, the “inhibition of the NT-4 response” value (TrkB receptor [6]; NT-4 5 ng/ml, linear peptide up to 125 μM) was “did not inhibit any of the response” and the “inhibition of neurite outgrowth response stimulated by N-cadherin, FGF2 or a CB1 receptor agonist” value (cerebellar neurons [7]) was “did not inhibit any of the response”. For the same molecule, the “inhibition … to the BAG peptide” value (Trk receptor) was “very little to no effect”.
“Ac-CSRRGELAASRRGELC-NH2 (cysteine pairing not given here) [BAG]” was tested, and the pEC50 (cerebellar neurons [3]) was about 6.52, the “concentration of near maximal neurite outgrowth response” value (cerebellar neurons [3]) was “about 600 Nm” and the “promotion of axonal growth compared with established growth promoting agents” value (cerebellar neurons [3]; BAG 6 μM, comparators 5 ng/ml) was “promotes axonal growth by the same extent as maximally active concentrations of NT-R, BDNF and FGF2”. The “lowest concentration that effectively blocks MAG inhibitor activity” value (MAG inhibitory activity [1]; MAG-Fc 25 μg/ml) was 30 nM, the “effect on MAG-Fc inhibition” value (MAG inhibitory activity [1]) was “MAG-Fc failed to inhibit neurite outgrowth” and the “effect on neurite outgrowth in the absence of MAG-Fc” value (MAG inhibitory activity [8]) was “does not have a substantial effect”. For the same molecule, the “effect on MAG-Fc inhibition” value (MAG inhibitory activity [8]; MAG-Fc 25 μg/ml, BDNF 5 ng/ml) was “does effectively block the MAG response”, the “effect on inhibition of neurite outgrowth by GT1b antibody” value (GT1b) was “the antibody's inhibitor effect is effectively eliminated” and the “effect on inhibitory response elicited by p75NTR antibody” value (p75^NTR receptor) was “effectively blocks the p75^NTR antibody's inhibitory effect”. The “neurite growth in the inhibitory environment at 10 μg/ml and 100 μg/ml” value (MAG inhibitory activity [2]; concentrations of 10 μg/ml and 100 μg/ml, MAG-Fc coating) was “promotes neurite growth”.
CCN(CC)CCCCNc1ncc2cc(-c3cc(OC)cc(OC)c3)c(NC(=O)NC(C)(C)C)nc2n1 [PD17304, reference compound] was tested, and the “inhibition … to the BAG peptide” value (Trk receptor) was “did not inhibit the response”.
